How the values were obtained:
[1] = system: SK-MEL-28 cells; assay: WST-8 cell viability assay, SK-MEL-28; format: cell-based; conditions: WST-8 3 d serial dilutions
Description: (§1) Cells were fixed and stained by crystal violet.
(§2) Cells (2000 cells per well) were seeded into 96-well microplates. After 20 h, cells were treated with 0.1% DMSO or indicated serial dilutions of compounds in duplicate or triplicate for 3 days. Cell viability was tested using MTT (M6494, Thermo Fisher Scientific) or WST-8 reagent (CK04, Dojindo). Briefly, 12 mM MTT was prepared in PBS or WST-8 reagent was warmed up to room temperature. 20 μL MTT or CCK-8 was then added to each well and the plates were kept in incubator at 37° C. for 3 h in the dark. For the WST-8 assay, signal was obtained after the incubation. For the MTT assay, cell medium was replaced with 200 μL of DMSO after the incubation, and then cell plates were kept at 37° C. for another 30 min. Absorbance signals for MTT and WST-8 were read at 540 nm and 450 nm respectively, with 690 nm as reference performed with Infinite F PLEX plate reader (TECAN, Morrisville, NC, USA). GI50 values were analyzed using GraphPad Prism 8 from the data of at least three independent experiments.

[2] = system: pMEK and pERK; assay: Western blot of MEK and ERK phosphorylation in SK-MEL-28 cells; conditions: SK-MEL-28 cells
[3] = system: MEK1/2; assay: Western blot of MEK1/2 protein levels in HT-29 cells; format: cell-based
Description: Compound concentrations are 0.3 μM, 1 μM and 3 μM.
(§3) The indicated protein levels were determined by Western blots.
(§4) The sample was centrifuged at 12,000 g for 10 min at 4° C. to get supernatant as cell lysate. Protein concentrations were quantified using Pierce rapid gold BCA protein assay kit.

[4] = system: pMEK and pERK; assay: Western blot of MEK and ERK phosphorylation in HT-29 cells; format: cell-based; conditions: HT-29 cells
[5] = system: MEK1 and MEK2 proteins; assay: Global proteome analysis of HT-29 cells; format: cell-based, human
Description: […] […] P values were calculated from the data of two technical replicates. (A) DMSO compared to CPD-031 treated samples; (B) CPD-034 compared to CPD-031 treated samples; (C) DMSO compared to CPD-034 treated samples.
Proteins outside the significance lines were labeled with pink or purple color (FDR=0.05, S0=1). P values were calculated from the data of two technical replicates.
Protein Extraction and Digestion. Cells with indicated treatments were harvested and lysed in lysis buffer (6 M guanidine hydrochloride, 100 mM Tris-HCl pH 8.0). Sonication (5 s on, 5 s off, 2×30 s) was performed to shear genome DNA. Lysate were centrifugated for 30 min at 3,500 g at 4° C. and the supernatant were transferred to a clean tube, diluted 50% with Milli-Q H2O, then precipitated by addition of cold acetone (four times the original volume), and placed at −20° C. overnight. Precipitated proteins were brought down at 20,000 g at 4° C. for 10 min, and washed with cold acetone after discarding the supernatant. The pellet was air-dried at RT for 5 min and solubilized with 50 mM Tris-HCl (PH 8.0), 8 M urea. Protein concentration was determined (BCA assay) and protein was reduced with 5 mM DTT (dithiothreitol), alkylated with 15 mM IAA (iodoacetamide) in the dark, then diluted with buffer 25 mM Tris (pH 8.0) and 1 mM CaCl2 (three times the original volume). The final urea concentration is 2 M. Trypsin was added into protein solution with 1:100 ratio (trypsin:protein), and digested 12-16 h or overnight at RT.
Mass Spectrometry Analysis. Peptides were cleaned up by C18 stage tips and the concentration was determined (Peptide assay, 23275, Thermo Fisher Scientific). The clean peptides were dissolved in 0.1% formic acid and analyzed on a Q-Exactive HF-X coupled with an Easy nanoLC 1200 (Thermo Fisher Scientific, San Jose, CA). 0.5 μg of peptides were loaded onto an Acclain PepMap RSLC C18 Column (250 mm×75 μm ID, C18, 2 μm, Thermo Fisher Scientific). […] A linear gradient of 5 to 30% buffer B over 110 min was executed at a 300 nl/min flow rate followed a ramp to 100% B in 5 min, and 15-min wash with 100% B, where buffer A was aqueous 0.1% formic acid, and buffer B was 80% acetonitrile and 0.1% formic acid.
LC-MS experiments were performed in a data-dependent mode with full MS (externally calibrated to a mass accuracy of <5 ppm and a resolution of 60,000 at m/z 200) followed by high energy collision-activated dissociation-MS/MS of the top 20 most intense ions with a resolution of 15,000 at m/z 200. High energy collision-activated dissociation-MS/MS was used to dissociate peptides at a normalized collision energy of 27 eV in the presence of nitrogen bath gas atoms. Dynamic exclusion was 30.0 seconds. Each sample was subjected to two technical LC-MS replicates.
MS Data Analysis. Mass spectra processing and peptide identification were performed on the Andromeda search engine in MaxQuant software (Version 1.6.0.16) against the human UniProt database (UP000005640). All searches were conducted with a defined modification of cysteine carbamidomethylation, with methionine oxidation and protein amino-terminal acetylation as dynamic modifications. Peptides were confidently identified using a target-decoy approach with a peptide false discovery rate (FDR) of 1% and a protein FDR of 1%. A minimum peptide length of 7 amino acids was required, maximally two missed cleavages were allowed, initial mass deviation for precursor ion was up to 7 ppm, and the maximum allowed mass deviation for fragment ions was 0.5 Da. Data processing and statistical analysis were performed on Perseus (Version 1.6.0.7). Protein quantitation was performed on duplicate runs, and a two-sample t-test statistics was used to report statistically significant expression fold-changes.

[6] = system: HT-29 cells; assay: WST-8 cell viability assay, HT-29; format: cell-based; conditions: WST-8 3 d serial dilutions, clonogenic assay 10 d
Description: as §1, §2

[7] = system: MEK1/2; assay: Western blot of MEK1/2 protein levels in SK-MEL-28 cells; conditions: SK-MEL-28 cells
Description: as §3, §4

[8] = biological target: T1, MEK1 (Homo sapiens, UniProt Q02750); assay: HotSpot kinase inhibition assay, MEK1; format: biochemical; conditions: MEK1 100 nM, ERK K52R substrate, 33P-ATP, normalized with DMSO
T1 construct: purchased Thermo Fisher Scientific PV3303

[9] = biological target: T2, MEK2 (Homo sapiens, UniProt P36507); assay: HotSpot kinase inhibition assay, MEK2; format: biochemical; conditions: MEK2 150 nM, ERK K52R substrate, 33P-ATP, normalized with DMSO
T2 construct: purchased Thermo Fisher Scientific PV3615

[10] = 0.1 μM or 0.3 μM, harvested at indicated time points
[11] = serial dilution, 24 h, western blot
[12] = 8 h, 0.1 μM CPD-038 or CPD-052, 0.3 μM CPD-051 or CPD-097, versus 0.1% DMSO

T1 sequence (Q02750 whole entry): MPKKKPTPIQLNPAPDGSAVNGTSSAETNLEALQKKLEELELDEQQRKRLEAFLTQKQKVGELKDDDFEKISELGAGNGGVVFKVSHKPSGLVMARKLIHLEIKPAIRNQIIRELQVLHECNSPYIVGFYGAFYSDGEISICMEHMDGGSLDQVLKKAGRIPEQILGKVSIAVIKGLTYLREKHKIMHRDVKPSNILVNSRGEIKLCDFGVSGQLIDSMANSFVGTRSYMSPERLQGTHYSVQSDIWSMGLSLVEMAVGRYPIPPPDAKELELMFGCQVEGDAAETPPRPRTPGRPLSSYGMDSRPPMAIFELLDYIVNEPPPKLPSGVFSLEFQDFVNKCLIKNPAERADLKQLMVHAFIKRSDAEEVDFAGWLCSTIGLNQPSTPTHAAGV
T2 sequence (P36507 whole entry): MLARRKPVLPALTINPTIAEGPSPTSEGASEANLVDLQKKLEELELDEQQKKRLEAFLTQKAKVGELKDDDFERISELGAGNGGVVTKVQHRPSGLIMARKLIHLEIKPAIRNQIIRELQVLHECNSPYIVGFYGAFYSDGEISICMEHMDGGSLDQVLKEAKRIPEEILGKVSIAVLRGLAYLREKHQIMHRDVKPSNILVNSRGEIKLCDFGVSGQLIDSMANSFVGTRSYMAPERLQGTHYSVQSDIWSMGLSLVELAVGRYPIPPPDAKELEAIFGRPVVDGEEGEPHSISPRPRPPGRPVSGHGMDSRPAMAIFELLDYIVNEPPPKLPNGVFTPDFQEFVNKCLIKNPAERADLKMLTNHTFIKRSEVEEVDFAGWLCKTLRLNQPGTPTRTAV

O=C1CCC(N2C(=O)c3ccc(NCCOCCOCCOCCOCCOCCNCCCONC(=O)c4ccc(F)c(F)c4Nc4ccc(I)cc4F)cc3C2=O)C(=O)N1 (stereo not shown) [CPD-051, N-((1-((2-(2,6-dioxopiperidin-3-yl)-1,3-dioxoisoindolin-5-yl)amino)-3,6,9,12,15-pentaoxa-18-azahenicosan-21-yl)oxy)-3,4-difluoro-2-((2-fluoro-4-iodophenyl)amino)benzamide]
growth of cells [1]: significantly suppressed | phosphorylation of MEK and ERK / pERK signaling, time-dependent [2, 10]: inhibit | phosphorylation of MEK and ERK proteins, concentration-dependent [2, 11]: inhibited | MEK1 and MEK2 protein levels, time-dependent ([3]; HT-29 cells, 0.1 μM or 0.3 μM, harvested at indicated time points): degrade | MEK1 and MEK2 protein levels ([3]; HT-29 cells, 24 h, 0.3 μM, 1 μM and 3 μM, western blot normalized with α-tubulin): significantly degraded | MEK1 and MEK2 protein levels, concentration-dependent ([3]; HT-29 cells, serial dilution, 24 h, western blot): concentration-dependently reduced | phosphorylation of MEK and ERK / pERK signaling, time-dependent [4, 10]: inhibit | phosphorylation of MEK and ERK proteins, concentration-dependent [4, 11]: inhibited | protein levels in the global proteomic study [5, 12]: selectively degraded | growth of cells [6]: significantly suppressed | MEK1 and MEK2 protein levels, time-dependent [7, 10]: degrade | MEK1 and MEK2 protein levels, concentration-dependent [7, 11]: concentration-dependently reduced

Cc1ncsc1-c1ccc([C@H](C)NC(=O)C2CC(O)CN2C(=O)[C@@H](NC(=O)CCCCCCCCCCNCCCONC(=O)c2ccc(F)c(F)c2Nc2ccc(I)cc2F)C(C)(C)C)cc1 (stereo in doubt) [CPD-034, (2R,4S)-1-((S)-20-(tert-butyl)-1-(3,4-difluoro-2-((2-fluoro-4-iodophenyl)amino)phenyl)-1,18-dioxo-3-oxa-2,7,19-triazahenicosan-21-oyl)-4-hydroxy-N—((S)-1-(4-(4-methylthiazol-5-yl)phenyl)ethyl)pyrrolidine-2-carboxamide]
MEK1 kinase activity [8]: inhibited | MEK1 and MEK2 protein levels ([3]; HT-29 cells, 0.1, 0.3, or 1 μM, 24 h): not | MEK2 kinase activity [9]: inhibited | protein levels in the global proteomic study ([5]; 10 h, 0.1 μM, versus 0.1% DMSO): did not significantly modulate

CN1C(=O)CCC(N2C(=O)c3ccc(NCCOCCOCCOCCOCCOCCNCCCONC(=O)c4ccc(F)c(F)c4Nc4ccc(I)cc4F)cc3C2=O)C1=O (stereo not shown) [CPD-097, 3,4-difluoro-2-((2-fluoro-4-iodophenyl)amino)-N-((1-((2-(1-methyl-2,6-dioxopiperidin-3-yl)-1,3-dioxoisoindolin-5-yl)amino)-3,6,9,12,15-pentaoxa-18-azahenicosan-21-yl)oxy)benzamide]
growth of cells [1]: did not significantly suppress | protein levels in the global proteomic study [5, 12]: did not significantly modulate | growth of cells [6]: did not significantly suppress

Cc1ncsc1-c1ccc([C@H](C)NC(=O)[C@H]2C[C@H](O)CN2C(=O)[C@@H](NC(=O)CCCCCCCCCCCNCCCCONC(=O)c2ccc(F)c(F)c2Nc2ccc(I)cc2F)C(C)(C)C)cc1 [CPD-052, (2R,4S)-1-((S)-22-(tert-butyl)-1-(3,4-difluoro-2-((2-fluoro-4-iodophenyl)amino)phenyl)-1,20-dioxo-3-oxa-2,8,21-triazatricosan-23-oyl)-4-hydroxy-N-((S)-1-(4-(4-methylthiazol-5-yl)phenyl)ethyl)pyrrolidine-2-carboxamide]
growth of cells [1]: did not significantly suppress | protein levels in the global proteomic study [5, 12]: did not significantly modulate | growth of cells [6]: did not significantly suppress
